Mutagenic call data for 5 molecules are collected here from PubChem BioAssay AID1259407 (Chemical Carcinogenesis Research Information System (CCRIS), 2018).

The data set deals with CCRIS mutagenicity, Ames/micronucleus/aberration tests. The experiment in a line: CCRIS mutagenicity studies.
[1] abbreviates: Test System: AMES SALMONELLA TYPHIMURIUM, Strain/Indicator: TA98, Metabolic Activation: NONE, Method: STANDARD PLATE.
Where [2] appears, read: Test System: AMES SALMONELLA TYPHIMURIUM, Strain/Indicator: TA100, Metabolic Activation: NONE, Method: STANDARD PLATE.
[3] abbreviates: Test System: AMES SALMONELLA TYPHIMURIUM, Strain/Indicator: TA98, Metabolic Activation: NONE, Method: PREINCUBATION
The mark [4] stands for this setting: Test System: AMES SALMONELLA TYPHIMURIUM, Strain/Indicator: TA100, Metabolic Activation: NONE, Method: PREINCUBATION
The mark [5] stands for this setting: Test System: AMES SALMONELLA TYPHIMURIUM, Strain/Indicator: TA98, Metabolic Activation: RAT, LIVER, S-9, AROCLOR 1254, Method: STANDARD PLATE.
The mark [6] stands for this setting: Test System: AMES SALMONELLA TYPHIMURIUM, Strain/Indicator: TA100, Metabolic Activation: RAT, LIVER, S-9, AROCLOR 1254, Method: STANDARD PLATE.

Calls of active or inactive are those of the source. How the calls were made is not given here.

For `O=[N+]([O-])c1cc2[nH]c3ccc4ccccc4c3c2c2ccccc12`, the mutagenic call under setting [1] was “inactive; negative”; the mutagenic call (Test System: AMES SALMONELLA TYPHIMURIUM, Strain/Indicator: TA98, Metabolic Activation: RAT, LIVER, S-9, 3-METHYLCHOLANTHRENE, Method: STANDARD PLATE) is “active; positive”; the mutagenic call under setting [2] is “inactive; negative”; the mutagenic call (Test System: AMES SALMONELLA TYPHIMURIUM, Strain/Indicator: TA100, Metabolic Activation: RAT, LIVER, S-9, 3-METHYLCHOLANTHRENE, Method: STANDARD PLATE) is “inactive; negative”.

Regarding `Oc1c(Cl)cc(Cl)c2cccnc12`, the mutagenic call by setting is: under setting [3], “inactive; negative”; (Test System: AMES SALMONELLA TYPHIMURIUM, Strain/Indicator: TA98, Metabolic Activation: RAT, LIVER, S-9, Method: PREINCUBATION) “inactive; negative”; under setting [4], “inactive; negative”; (Test System: AMES SALMONELLA TYPHIMURIUM, Strain/Indicator: TA100, Metabolic Activation: RAT, LIVER, S-9, Method: PREINCUBATION) “inactive; negative”.

`ClC(Cl)=Cc1c(Cl)c(Cl)c(Cl)c(Cl)c1Cl`: the mutagenic call under setting [1] was “inactive; negative”, the mutagenic call under setting [5] was “inactive; negative”, the mutagenic call under setting [2] was “inactive; negative” and the mutagenic call under setting [6] was “inactive; negative”.

Take `CC(C)=CC1C(C(=O)OCc2coc(Cc3ccccc3)c2)C1(C)C` (centres undefined): the mutagenic call is, setting by setting: (Test System: AMES SALMONELLA TYPHIMURIUM, Strain/Indicator: TA97, Metabolic Activation: NONE, Method: STANDARD PLATE) “inactive; negative”; (Test System: AMES SALMONELLA TYPHIMURIUM, Strain/Indicator: TA97, Metabolic Activation: RAT, LIVER, S-9, PHENOBARBITONE, Method: STANDARD PLATE) “inactive; negative”; (Test System: AMES SALMONELLA TYPHIMURIUM, Strain/Indicator: TA98) “active; positive”; (Test System: AMES SALMONELLA TYPHIMURIUM, Strain/Indicator: TA98, Metabolic Activation: NONE) “inactive; negative”; under setting [1], “inactive; negative”; under setting [5], “inactive; negative”. Further, the mutagenic call (Test System: AMES SALMONELLA TYPHIMURIUM, Strain/Indicator: TA98, Metabolic Activation: RAT, LIVER, S-9, PHENOBARBITONE, Method: STANDARD PLATE) was “inactive; negative”; the mutagenic call (Test System: AMES SALMONELLA TYPHIMURIUM, Strain/Indicator: TA100) was “active; positive”; the mutagenic call (Test System: AMES SALMONELLA TYPHIMURIUM, Strain/Indicator: TA100, Metabolic Activation: NONE) was “inactive; negative”; the mutagenic call under setting [2] was “inactive; negative”; the mutagenic call under setting [6] is “inactive; negative”; the mutagenic call (Test System: AMES SALMONELLA TYPHIMURIUM, Strain/Indicator: TA100, Metabolic Activation: RAT, LIVER, S-9, PHENOBARBITONE, Method: STANDARD PLATE) was “inactive; negative”. In addition, the mutagenic call (Test System: AMES SALMONELLA TYPHIMURIUM, Strain/Indicator: TA104, Metabolic Activation: NONE, Method: STANDARD PLATE) is “inactive; negative”; the mutagenic call (Test System: AMES SALMONELLA TYPHIMURIUM, Strain/Indicator: TA104, Metabolic Activation: RAT, LIVER, S-9, PHENOBARBITONE, Method: STANDARD PLATE) is “inactive; negative”; the mutagenic call (Test System: AMES SALMONELLA TYPHIMURIUM, Strain/Indicator: TA1535, Metabolic Activation: NONE, Method: STANDARD PLATE) was “inactive; negative”; the mutagenic call (Test System: AMES SALMONELLA TYPHIMURIUM, Strain/Indicator: TA1535, Metabolic Activation: RAT, LIVER, S-9, AROCLOR 1254, Method: STANDARD PLATE) was “inactive; negative”; the mutagenic call (Test System: AMES SALMONELLA TYPHIMURIUM, Strain/Indicator: TA1537, Metabolic Activation: NONE, Method: STANDARD PLATE) is “inactive; negative”; the mutagenic call (Test System: AMES SALMONELLA TYPHIMURIUM, Strain/Indicator: TA1537, Metabolic Activation: RAT, LIVER, S-9, AROCLOR 1254, Method: STANDARD PLATE) is “inactive; negative”. The mutagenic call was “inactive; negative” (Test System: CHINESE HAMSTER V-79, Strain/Indicator: V-79/6-THIOGUANINE, Metabolic Activation: NONE, Method: STANDARD PLATE); “inactive; negative” (Test System: CHINESE HAMSTER V-79, Strain/Indicator: V-79/6-THIOGUANINE, Metabolic Activation: RAT HEPATOCYTES, Method: STANDARD PLATE); “inactive; negative” (Test System: CHINESE HAMSTER V-79, Strain/Indicator: V-79/OUABAIN, Metabolic Activation: NONE, Method: STANDARD PLATE); “inactive; negative” (Test System: CHINESE HAMSTER V-79, Strain/Indicator: V-79/OUABAIN, Metabolic Activation: RAT HEPATOCYTES, Method: STANDARD PLATE); “inactive; negative” (Test System: E. COLI, Strain/Indicator: WP2, Metabolic Activation: NONE, Method: STANDARD PLATE); “inactive; negative” (Test System: E. COLI, Strain/Indicator: WP2, Metabolic Activation: RAT, LIVER, S-9, AROCLOR 1254, Method: STANDARD PLATE).

For `CCCCCCCCCCCCOCC1CO1` (centres undefined), the mutagenic call runs as follows: (Test System: AMES SALMONELLA TYPHIMURIUM, Strain/Indicator: TA97, Metabolic Activation: HAMSTER, LIVER, S-9, AROCLOR 1254 (10%), Method: PREINCUBATION) “inactive; negative”; (Test System: AMES SALMONELLA TYPHIMURIUM, Strain/Indicator: TA97, Metabolic Activation: HAMSTER, LIVER, S-9, AROCLOR 1254 (30%), Method: PREINCUBATION) “inactive; negative”; (Test System: AMES SALMONELLA TYPHIMURIUM, Strain/Indicator: TA97, Metabolic Activation: NONE, Method: PREINCUBATION) “inactive; negative”; (Test System: AMES SALMONELLA TYPHIMURIUM, Strain/Indicator: TA97, Metabolic Activation: RAT, LIVER, S-9, AROCLOR 1254 (10%), Method: PREINCUBATION) “inactive; negative”; (Test System: AMES SALMONELLA TYPHIMURIUM, Strain/Indicator: TA97, Metabolic Activation: RAT, LIVER, S-9, AROCLOR 1254 (30%), Method: PREINCUBATION) “inactive; negative”; (Test System: AMES SALMONELLA TYPHIMURIUM, Strain/Indicator: TA98, Metabolic Activation: HAMSTER, LIVER, S-9, AROCLOR 1254 (10%), Method: PREINCUBATION) “inactive; negative”. Further, the mutagenic call by setting is: (Test System: AMES SALMONELLA TYPHIMURIUM, Strain/Indicator: TA98, Metabolic Activation: HAMSTER, LIVER, S-9, AROCLOR 1254 (30%), Method: PREINCUBATION) “inactive; negative”; under setting [3], “inactive; negative”; (Test System: AMES SALMONELLA TYPHIMURIUM, Strain/Indicator: TA98, Metabolic Activation: RAT, LIVER, S-9, AROCLOR 1254 (10% & 30%), Method: PREINCUBATION) “inactive; negative”; (Test System: AMES SALMONELLA TYPHIMURIUM, Strain/Indicator: TA100, Metabolic Activation: HAMSTER, LIVER, S-9, AROCLOR 1254 (10%), Method: PREINCUBATION) “inactive; negative”; (Test System: AMES SALMONELLA TYPHIMURIUM, Strain/Indicator: TA100, Metabolic Activation: HAMSTER, LIVER, S-9, AROCLOR 1254 (30%), Method: PREINCUBATION) “inactive; negative”; under setting [4], “inactive; negative”. For the same molecule, the mutagenic call is “inactive; negative” (Test System: AMES SALMONELLA TYPHIMURIUM, Strain/Indicator: TA100, Metabolic Activation: RAT, LIVER, S-9, AROCLOR 1254 (10%), Method: PREINCUBATION); “inactive; negative” (Test System: AMES SALMONELLA TYPHIMURIUM, Strain/Indicator: TA100, Metabolic Activation: RAT, LIVER, S-9, AROCLOR 1254 (30%), Method: PREINCUBATION); “inactive; negative” (Test System: AMES SALMONELLA TYPHIMURIUM, Strain/Indicator: TA1535, Metabolic Activation: HAMSTER, LIVER, S-9, AROCLOR 1254 (10%), Method: PREINCUBATION); “inactive; negative” (Test System: AMES SALMONELLA TYPHIMURIUM, Strain/Indicator: TA1535, Metabolic Activation: NONE, Method: PREINCUBATION); “inactive; negative” (Test System: AMES SALMONELLA TYPHIMURIUM, Strain/Indicator: TA1535, Metabolic Activation: RAT, LIVER, S-9, AROCLOR 1254 (10%), Method: PREINCUBATION); “inactive; negative” (Test System: AMES SALMONELLA TYPHIMURIUM, Strain/Indicator: TA1535, Metabolic Activation: RAT, LIVER, S-9, AROCLOR 1254 (30%), Method: PREINCUBATION).
